Like-named read-outs stand apart in the source and are kept apart here. Blank lines part the entries; values can stand above or below the compound they belong to.
Experiments:
[1] = system: A431 cells; test: In vitro growth inhibition (MTT assay) in A431 cells; assay type: cell-based, human; details: read-out: Inhibition of cell growth IC50
Experimental: This assay measures the amount of MTT reduction by mitochondrial dehydrogenase and assumes that cell viability (corresponding to the reductive activity) is proportional to the production of purple formazan that is measured spectrophotometrically.
(§1) Cell line. The in vitro biological studies were established using the human epidermoid vulvar carcinoma A431 cell line, which overexpresses EGFR. Cells were available in our laboratory from previous studies. Cells were maintained in high glucose D-MEM medium with L-glutamine (PAA Laboratories GmbH, Pasching, Austria) and supplemented with 10% fetal bovine serum (PAA Laboratories GmbH) and penicillin/streptomycin (PAA Laboratories GmbH) 100 UI/100 μg per mL, in 5% CO2 incubator at 37 °C.
The in vitro cytotoxicity of the synthesized ligands and their rhenium complexes was determined by the MTT method. The A431 cells were seeded in 96-well plates at a density of 4000 cells per 100 μL per well and incubated for 24 h so that they were attached to the wells. After 24 h, the studied derivatives were dissolved in DMSO ([…]) and further diluted in D-MEM in various concentrations. […] The six concentrations of each derivative and control existed quadrupled into the experiment. The derivatives and the cells were incubated for 72 h. After three days, the medium was removed, and the cells were incubated […] in the presence of MTT (1 mg/mL 3-[4,5-dimethylthiazol-2-yl]-2,5-diphenyltetrazolium bromide, Sigma, Saint Louis, MO, USA) in RPMI (PAA Laboratories GmbH, Pasching, Austria) without phenol red for 2 h at 37 °C. The MTT solution was removed, and 2-propanol was added to each well to stop the cleavage of the tetrazolium ring by dehydrogenase enzymes which convert MTT to an insoluble purple formazan in living cells. The plates were then agitated at room temperature for about 15–20 min, and the level of the colored formazan derivative was determined by measuring optical density (OD) on an ELISA reader (540/620 nm). […] Cell proliferation assay was performed three times for each compound.

[2] = target: T1, EGFR (Homo sapiens, UniProt P00533); test: Inhibition of EGFR phosphorylation in intact A431 cells (immunoblotting); assay type: cell-based; details: 2 h compound then EGF 20 ng/mL 5 min, Western blot
T1 construct: by immunoblotting in intact A431 cells that overexpress EGFR; endogenous in cells; host or cells: A431 (human epidermoid vulvar carcinoma)
Experimental: Complex 5a was evaluated for its potency to inhibit EGFR phosphorylation in various concentrations by immunoblotting in intact A431 cells that overexpress EGFR (Figure 3). In addition, the percentage of EGFR phosphorylation was calculated, and a dose-response curve was performed (Figure 4).
as §1
The inhibition of EGFR phosphorylation was studied as described in the literature. A431 cells (5 × 10^5 cells/well) were seeded in 6-well plates and incubated for 24 h. Then, the medium was replaced with fresh medium without fetal bovine serum. […] Protein band quantification was performed using Image-J software, and the percentage of EGFR phosphorylation inhibition was calculated using GraphPad Prism 9.0 software.

[3] = Stability of 99mTc complexes in reaction mixture and after isolation in PBS (RP-HPLC); assay type: physicochemical
Experimental: (§2) The stability of complexes 5b and 7b was studied in their reaction mixture and after isolation by HPLC for up to 24 h.
Stability of ^99mTc complexes in the reaction mixture: Samples of the ^99mTc complexes’ reaction mixture were stored at room temperature for up to 24 h. At 1, 6, and 24 h intervals, 100 μL of each sample was removed and analyzed by RP-HPLC.
Stability of isolated ^99mTc complexes: Purification and isolation of 5b and 7b complexes were performed by injection of the reaction mixture into RP-HPLC and isolation of the eluted compounds’ peaks, corresponding to the elution time of each complex. Followingly, 0.1 M PBS buffer solution (900 µL) was added to a vial containing 100 µL (50–120 MBq) of the isolated technetium-99m complex. The sample was incubated at 37 °C for up to 24 h and analyzed by RP-HPLC at 1, 6, and 24 h intervals.

[4] = Cysteine and histidine challenge of 99mTc complexes (RP-HPLC); assay type: physicochemical
Experimental: as §2
Cysteine and histidine challenge: Histidine (100 µL, 1 × 10^−2 M) or cysteine (100 µL, 1 × 10^−2 M) solution in 0.1 M PBS was mixed with 100 µL (50–120 MBq) of the RP-HPLC isolated ^99mTc complexes in 0.1 M PBS (800 µL). The mixtures were incubated at 37 °C for up to 24 h and analyzed by RP-HPLC at 1, 6, and 24 h intervals.

[5] = Lipophilicity, shake-flask distribution coefficient; assay type: physicochemical; details: n-octanol/0.1 M phosphate buffer pH 7.4
Experimental: The pharmacokinetic profile of the studied compounds could be affected by their lipophilicity, expressed as the logarithm of the distribution coefficient (log Do/w). The lipophilicity of complexes 5b and 7b was determined in physiological conditions (n-octanol/0.1 M phosphate buffer pH 7.4). […] The presence of the pyridine ring in the chemical structure of complex […] increases the log D7.4 value, as expected.
The distribution coefficient of the 5b and 7b complexes was determined with the shake-flask method. The RP-HPLC isolated ^99mTc complexes (20 μL, ~75 kBq) were mixed with 2 mL of 1-octanol and 2 mL of phosphate buffer solution (PBS, 0.1 M, pH 7.4) in a centrifuge tube. The mixture was vortexed at room temperature for 2 min and centrifuged at 5000 rpm for 10 min. The radioactivity of each phase (200 μL) was counted in a gamma counter. The distribution coefficient was calculated by dividing the cpm/mL in the 1-octanol phase by those in the buffer, and the results were expressed as logD7.4. Each experiment was run in triplicate.

[6] = Biodistribution in healthy Swiss Albino mice after intravenous injection; assay type: in vivo; details: i.v.
Experimental: The pharmacokinetic profile of complexes 5b and 7b was evaluated in Swiss Albino healthy male mice at 5, 60, and 240 min post intravenous injection. Table 4 presents the results of the biodistribution studies expressed as % Injected Dose (ID)/g ± Standard Deviation (±SD). […] The high lipophilicity characterizing both complexes justifies the rapid hepatobiliary excretion, given the decreasing activity in the liver and the increasing amount of radioactivity in the intestines. Complex 5b presented faster clearance and elimination in the intestines at 60 min p.i. 34.05% of the radioactivity excreted, compared to 29.89% at 240 min p.i. of complex 7b. Radioactivity in the urine remained low in general, however, the lower logD7.4 value of complex 7b explains the relatively higher activity in the urines (7.88 ± 0.71%) as it is slightly more hydrophilic than 5b. Moreover, the low uptake in the brain indicates almost no blood-brain barrier penetration, although the complexes have favorable physicochemical characteristics.
All the biodistribution experiments were carried out in compliance with the national laws and European protocols (2010/63/EU) related to the conduct of animal experimentation. Nine healthy Swiss Albino mice (male, 30 ± 3 g), divided into three groups of three, were injected with the HPLC-purified 5b or 7b complex in saline with 10% EtOH (0.1 mL, ~75 kBq) through the tail vein. For each group, the animals were sacrificed by cardiectomy under slight ether anesthesia 5, 60, and 240 min after the injection. The organs of interest were excised, weighed, and counted in an automatic gamma counter. The bladder and excreted urine were not weighed. The stomach and intestines were not emptied of food contents prior to radioactivity measurements. The percentage of injected dose per organ (%ID/organ) was calculated by comparison of sample radioactivity to standard solutions containing 10% of the injected dose. The calculation for blood and muscle was based on measured activity, sample weight, and body composition data (considering that blood and muscle comprise 7 and 43% of body weight). The percentage of injected dose per gram (%ID/g) was calculated by dividing the %ID/organ by the weight of the organ or tissue.

[7] = Homo sapiens, A-431, A431 cancer cell line, MTT, 72 h, mean ± SD of three experiments
[8] = A431 cancer cell line, MTT, 72 h, mean ± SD of three experiments

T1 sequence (P00533 25-1210): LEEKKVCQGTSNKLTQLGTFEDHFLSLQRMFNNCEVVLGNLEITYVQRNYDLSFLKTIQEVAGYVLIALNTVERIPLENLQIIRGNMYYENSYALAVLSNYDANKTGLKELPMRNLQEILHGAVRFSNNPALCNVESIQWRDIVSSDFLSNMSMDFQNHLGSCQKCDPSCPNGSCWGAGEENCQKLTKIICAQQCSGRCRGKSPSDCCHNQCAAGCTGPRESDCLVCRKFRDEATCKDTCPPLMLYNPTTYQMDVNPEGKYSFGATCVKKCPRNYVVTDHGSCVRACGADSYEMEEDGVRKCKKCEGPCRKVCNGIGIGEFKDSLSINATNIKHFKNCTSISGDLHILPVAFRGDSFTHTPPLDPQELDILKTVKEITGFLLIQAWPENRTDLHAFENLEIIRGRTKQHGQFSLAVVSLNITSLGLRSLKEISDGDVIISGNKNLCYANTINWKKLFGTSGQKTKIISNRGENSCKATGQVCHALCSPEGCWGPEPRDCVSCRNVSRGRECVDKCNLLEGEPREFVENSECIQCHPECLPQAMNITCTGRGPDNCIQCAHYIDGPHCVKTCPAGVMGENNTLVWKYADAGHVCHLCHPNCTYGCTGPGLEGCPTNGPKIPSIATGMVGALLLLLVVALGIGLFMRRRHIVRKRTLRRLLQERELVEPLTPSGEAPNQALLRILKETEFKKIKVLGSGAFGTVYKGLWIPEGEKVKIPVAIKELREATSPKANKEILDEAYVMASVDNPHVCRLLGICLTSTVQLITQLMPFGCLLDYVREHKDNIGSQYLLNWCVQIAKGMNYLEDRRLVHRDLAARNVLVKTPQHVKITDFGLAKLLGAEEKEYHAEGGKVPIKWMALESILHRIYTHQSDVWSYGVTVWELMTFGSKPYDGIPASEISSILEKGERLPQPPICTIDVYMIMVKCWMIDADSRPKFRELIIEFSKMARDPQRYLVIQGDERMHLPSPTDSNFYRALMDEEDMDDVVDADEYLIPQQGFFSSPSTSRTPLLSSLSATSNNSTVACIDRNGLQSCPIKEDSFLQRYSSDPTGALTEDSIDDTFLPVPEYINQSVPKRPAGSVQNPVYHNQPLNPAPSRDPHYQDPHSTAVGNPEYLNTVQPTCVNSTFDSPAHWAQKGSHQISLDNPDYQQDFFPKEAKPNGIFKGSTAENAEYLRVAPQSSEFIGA

IC50 [1, 8]: 29.6 ± 3.63 µM
Compound: NC(CSCCCCCC(=O)Nc1ccc2ncnc(Nc3cccc(Br)c3)c2c1)C(=O)[O-].[C-]#[O+].[C-]#[O+].[C-]#[O+].[Re+] (stereo not shown) [Compound 7a, fac-[Re(SNO)(CO)3]]

%RCP in PBS for 24 h ([3]; 0.1 M PBS, 37 °C, 24 h): 99 ± 1%
Stability in reaction mixture and after isolation by HPLC ([3]; up to 24 h, room temperature or 37 °C): No decomposition
Stability after incubation with excess of histidine and cysteine ([4]; 24 h, molar ratio 1/1000, HPLC): > 95%
%RCP in Cysteine for 24 h ([4]; excess cysteine, 37 °C): 95 ± 1%
%RCP in Histidine for 24 h ([4]; excess histidine, 37 °C): 95 ± 2%
log D7.4 [5]: 2.87 ± 0.32
In vivo stability (low spleen and stomach radioactivity; no oxidation to pertechnetate/TcO2) [6]: stable in vivo
Blood %Injected Dose/g ([6]; 5 min): 1.06 ± 0.29 %Injected Dose/g
Brain %Injected Dose/g ([6]; 5 min): 0.06 ± 0.02 %Injected Dose/g
Heart %Injected Dose/g ([6]; 5 min): 0.97 ± 0.29 %Injected Dose/g
Intestines %Injected Dose/g ([6]; 5 min): 10.62 ± 1.17 %Injected Dose/g
Kidneys %Injected Dose/g ([6]; 5 min): 13.04 ± 2.34 %Injected Dose/g
Liver %Injected Dose/g ([6]; 5 min): 23.33 ± 3.63 %Injected Dose/g
Lungs %Injected Dose/g ([6]; 5 min): 1.19 ± 0.22 %Injected Dose/g
Muscle %Injected Dose/g ([6]; 5 min): 0.29 ± 0.11 %Injected Dose/g
Pancreas %Injected Dose/g ([6]; 5 min): 1.10 ± 0.11 %Injected Dose/g
Spleen %Injected Dose/g ([6]; 5 min): 0.92 ± 0.32 %Injected Dose/g
Stomach %Injected Dose/g ([6]; 5 min): 1.04 ± 0.10 %Injected Dose/g
Urine % ID ([6]; 5 min): 0.08 ± 0.06 % ID
Blood %Injected Dose/g ([6]; 60 min): 0.30 ± 0.09 %Injected Dose/g
Brain %Injected Dose/g ([6]; 60 min): 0.02 ± 0.01 %Injected Dose/g
Heart %Injected Dose/g ([6]; 60 min): 0.18 ± 0.03 %Injected Dose/g
Intestines %Injected Dose/g ([6]; 60 min): 26.81 ± 1.61 %Injected Dose/g
Kidneys %Injected Dose/g ([6]; 60 min): 1.94 ± 0.28 %Injected Dose/g
Liver %Injected Dose/g ([6]; 60 min): 4.88 ± 0.47 %Injected Dose/g
Lungs %Injected Dose/g ([6]; 60 min): 0.26 ± 0.04 %Injected Dose/g
Muscle %Injected Dose/g ([6]; 60 min): 0.13 ± 0.12 %Injected Dose/g
Pancreas %Injected Dose/g ([6]; 60 min): 0.24 ± 0.05 %Injected Dose/g
Spleen %Injected Dose/g ([6]; 60 min): 0.11 ± 0.02 %Injected Dose/g
Stomach %Injected Dose/g ([6]; 60 min): 0.97 ± 0.22 %Injected Dose/g
Urine % ID ([6]; 60 min): 5.83 ± 0.02 % ID
Blood %Injected Dose/g ([6]; 240 min): 0.18 ± 0.04 %Injected Dose/g
Brain %Injected Dose/g ([6]; 240 min): 0.07 ± 0.06 %Injected Dose/g
Heart %Injected Dose/g ([6]; 240 min): 0.12 ± 0.00 %Injected Dose/g
Intestines %Injected Dose/g ([6]; 240 min): 29.89 ± 2.41 %Injected Dose/g
Kidneys %Injected Dose/g ([6]; 240 min): 1.12 ± 0.03 %Injected Dose/g
Liver %Injected Dose/g ([6]; 240 min): 4.46 ± 0.16 %Injected Dose/g
Lungs %Injected Dose/g ([6]; 240 min): 0.25 ± 0.08 %Injected Dose/g
Muscle %Injected Dose/g ([6]; 240 min): 0.03 ± 0.00 %Injected Dose/g
Pancreas %Injected Dose/g ([6]; 240 min): 0.12 ± 0.02 %Injected Dose/g
Spleen %Injected Dose/g ([6]; 240 min): 0.09 ± 0.02 %Injected Dose/g
Stomach %Injected Dose/g ([6]; 240 min): 0.96 ± 0.06 %Injected Dose/g
Urine % ID ([6]; 240 min): 7.88 ± 0.71 % ID
Compound: NC(CSCCCCCC(=O)Nc1ccc2ncnc(Nc3cccc(Br)c3)c2c1)C(=O)[O-].[99Tc+].[C-]#[O+].[C-]#[O+].[C-]#[O+] (stereo not shown) [Compound 7b]

Further lines, the compound ahead of its results:

Compound: Nc1ccc2ncnc(Nc3cccc(Br)c3)c2c1 [Compound 1, 6-amino-4-[(3-bromophenyl)amino] quinazoline, reference compound]
IC50 ([1]; Homo sapiens, A-431, 72 h): 2.3 ± 0.3 µM

Compound: CCOC(=O)CN(CCCCCC(=O)Nc1ccc2ncnc(Nc3cccc(Br)c3)c2c1)Cc1ccccn1 [Compound 4, 6-(pyridine-2-methyl N, N, acetic ethyl ester-hexanoyl)-4-[(3-bromophenyl)amino]-quinazoline]
IC50 [1, 7]: 25.6 ± 3.87 µM

Compound: O=C([O-])CN(CCCCCC(=O)Nc1ccc2ncnc(Nc3cccc(Br)c3)c2c1)Cc1ccccn1.[C-]#[O+].[C-]#[O+].[C-]#[O+].[Re+] [Compound 5a, fac-[Re(NNO)(CO)3]]
IC50 [1, 8]: 8.85 ± 2.62 µM
IC50 [2]: 0.0261 µM

Compound: NC(CSCCCCCC(=O)Nc1ccc2ncnc(Nc3cccc(Br)c3)c2c1)C(=O)O (stereo not shown) [Compound 6, 6-(cysteine-N-hexanoyl)-4-[(3-bromophenyl)amino]-quinazoline]
IC50 [1, 7]: 4.12 ± 0.92 µM

— publication PMC9960821, “Evaluation of Rhenium and Technetium-99m Complexes Bearing Quinazoline Derivatives as Potential EGFR Agents” (Molecules, 2023)
